Experimental data published in ChEMBL document CHEMBL1201862, “PubChem BioAssay data set” (2004).
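Interpolation was linear, between the two tested concentrations surrounding the appropriate level; five concentrations were tested over 48 hours in 96-well plates. GI50 is the concentration that inhibits growth by half.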 Activity calls are given as the source filed them. Cut-off read from the data, not from the text of the source: active = GI50 up to about 1.1 µM and inactive = higher.

Legend:
Test in all cases: growth of human tumour cells (NCI), 48 h
SF-268 = system: SF-268
LOX IMVI = system: LOX IMVI
HOP-92 = system: HOP-92
U-251 = system: U-251
OVCAR-8 = system: OVCAR-8
SF-295 = system: SF-295
NCI-H522 = system: NCI-H522
Hs-578T = system: Hs-578T
HCT-116 = system: HCT-116
MDA-MB-231 = system: MDA-MB-231
786-0 = system: 786-0
PC-3 = system: PC-3
EKVX = system: EKVX
T47D = system: T47D
RXF 393 = system: RXF 393
Malme-3M = system: Malme-3M
TK-10 = system: TK-10
SNB-75 = system: SNB-75
COLO 205 = system: COLO 205
UO-31 = system: UO-31

Structure (SMILES)	GI50 (SF-268)	GI50 (LOX IMVI)	GI50 (HOP-92)	GI50 (U-251)	GI50 (OVCAR-8)	GI50 (SF-295)	GI50 (NCI-H522)	GI50 (Hs-578T)	GI50 (HCT-116)	GI50 (MDA-MB-231)	GI50 (786-0)	GI50 (PC-3)	GI50 (EKVX)	GI50 (T47D)	GI50 (RXF 393)	GI50 (Malme-3M)	GI50 (TK-10)	GI50 (SNB-75)	GI50 (COLO 205)	GI50 (UO-31)
COC(=O)C(C)(C)[C@@H]1OC(=O)N(S(=O)(=O)c2c(C)cc(C)cc2C)[C@H]1C(C)C	> 100 µM (inactive)	78 µM (inactive)	23.1 µM (inactive)	> 100 µM (inactive)	> 100 µM (inactive)	> 100 µM (inactive)	> 100 µM (inactive)	43 µM (inactive)	52.8 µM (inactive)	> 100 µM (inactive)	> 100 µM (inactive)	32.7 µM (inactive)	> 100 µM (inactive)	63.5 µM (inactive)	> 100 µM (inactive)	> 100 µM (inactive)	> 100 µM (inactive)	41 µM (inactive)	27 µM (inactive)	> 100 µM (inactive)
NS(=O)(=O)c1cc2c(cc1Cl)N=C(CCC(=O)O)NS2(=O)=O	> 100 µM (inactive)	> 100 µM (inactive)	> 100 µM (inactive)	> 100 µM (inactive)	> 100 µM (inactive)	> 100 µM (inactive)	> 100 µM (inactive)	> 100 µM (inactive)	> 100 µM (inactive)	> 100 µM (inactive)	> 100 µM (inactive)	> 100 µM (inactive)	> 100 µM (inactive)	> 100 µM (inactive)	> 100 µM (inactive)	> 100 µM (inactive)	> 100 µM (inactive)	> 100 µM (inactive)	> 100 µM (inactive)	> 100 µM (inactive)
CC(=O)c1ccc2c(c1)CC1(C2)Cc2cc3c(cc2C1=O)CCC3 (stereo not given)	28.9 µM (inactive)	17.7 µM (inactive)	25.9 µM (inactive)	30.3 µM (inactive)	16.1 µM (inactive)	21.8 µM (inactive)	22.7 µM (inactive)	27.6 µM (inactive)	17.5 µM (inactive)	20.6 µM (inactive)	19.3 µM (inactive)	19.2 µM (inactive)	25.2 µM (inactive)	20.5 µM (inactive)	20.8 µM (inactive)	13.3 µM (inactive)	25.7 µM (inactive)	15.6 µM (inactive)	14.9 µM (inactive)	26.1 µM (inactive)
CSC1(SC)N2Cc3ccccc3N=C2C1(c1ccccc1)c1ccccc1	21.3 µM (inactive)	12.3 µM (inactive)	4.12 µM (inactive)	15.1 µM (inactive)	29.2 µM (inactive)	11.1 µM (inactive)	5.96 µM (inactive)	29 µM (inactive)	6.18 µM (inactive)	26.7 µM (inactive)	22.5 µM (inactive)	12 µM (inactive)	6.67 µM (inactive)	4.51 µM (inactive)	9.82 µM (inactive)	8.22 µM (inactive)	> 35.1 µM (inactive)	> 100 µM (inactive)	5.89 µM (inactive)	24.8 µM (inactive)
C=COC(=O)N[C@H]1CCc2cc(OC)c(OC)c(OC)c2-c2ccc(SC)c(=O)cc21	< 0.01 µM (active)	< 0.01 µM (active)	< 0.01 µM (active)	< 0.01 µM (active)	0.0133 µM (active)	< 0.01 µM (active)	< 0.01 µM (active)	< 0.01 µM (active)	< 0.01 µM (active)	< 0.01 µM (active)	< 0.01 µM (active)	< 0.01 µM (active)	8.43 µM (inactive)	34 µM (inactive)	< 0.0176 µM (active)	< 0.01 µM (active)	0.177 µM (active)	0.0578 µM (active)	< 0.01 µM (active)	< 0.048 µM (active)
Cc1cc2ccccc2c[n+]1CC(O)C[n+]1cc2ccccc2cc1C	> 100 µM (inactive)	> 100 µM (inactive)	> 100 µM (inactive)	> 100 µM (inactive)	> 100 µM (inactive)	20.1 µM (inactive)	> 100 µM (inactive)	> 100 µM (inactive)	> 100 µM (inactive)	> 100 µM (inactive)	> 100 µM (inactive)	> 100 µM (inactive)	> 100 µM (inactive)	> 100 µM (inactive)	> 100 µM (inactive)	> 100 µM (inactive)	> 100 µM (inactive)	> 100 µM (inactive)	> 100 µM (inactive)	> 100 µM (inactive)
O=c1cc(O)c2ccccc2o1 [4-HYDROXYCOUMARINS]	> 100 µM (inactive)	> 100 µM (inactive)	> 100 µM (inactive)	> 100 µM (inactive)	> 100 µM (inactive)	> 100 µM (inactive)	> 100 µM (inactive)	> 100 µM (inactive)	> 100 µM (inactive)	> 100 µM (inactive)	> 100 µM (inactive)	> 100 µM (inactive)	> 100 µM (inactive)	> 100 µM (inactive)	> 100 µM (inactive)	> 100 µM (inactive)	> 100 µM (inactive)	> 100 µM (inactive)	> 100 µM (inactive)	> 100 µM (inactive)
